According to patent US8252766B2 (CBT Development Limited, priority 2002, dated 2012):

Key:
static allodynia = static allodynia in a model of neuropathic pain; type: in vivo
Procedure: Spongosine and gabapentin were administered (p.o.) in different proportions as indicated in the drawing. The total dose administered is shown on the horizontal axis, and the paw withdrawal threshold (PWT) on the vertical axis. The predicted anti-hyperalgesic effect (derived from the dose response curves obtained with each agent alone) if the effects of the two compounds are additive is shown (●). The observed effects are indicated by (▪).

[1] = tested on: carrageenan-induced oedema; settings: rats; inhibition of carrageenan-induced oedema in a rat paw; cited from earlier work
[2] = tested on: thermal hyperalgesia caused by chronic constriction injury; test: thermal hyperalgesia caused by chronic constriction injury of the rat sciatic nerve; type: in vivo
From the text: After approximately two weeks the rats developed thermal hyperalgesia in the operated leg as judged by the difference in paw withdrawal latencies of the right and left paws.

[3] = tested on: carrageenan (CGN) induced thermal hyperalgesia; test: carrageenan induced thermal hyperalgesia (CITH); type: in vivo
Procedure: Carrageenan (2%, 10 microliters) was administered into the right hind paw. A heat source was placed close to the treated and untreated hind paws, and the difference in the paw withdrawal latencies is shown. Spongosine was administered at the same time as carrageenan.

[4] = blood pressure and heart rate by implantable radiotelemetry; type: in vivo, rat; settings: 0.624 mg/kg p.o., normal rats
From the text: An implantable radiotelemetry device was placed in the abdominal cavity of 6 rats per group. The pressure catheter of the device was inserted in the abdominal aorta and two electrodes tunnelised under the skin in a lead II position (left side of abdominal cavity/right shoulder). Individual rats were placed in their own cage on a radioreceptor (DSI) for data acquisition. A: blood pressure, B; heart rate.

[5] = rats; cited from earlier work
[6] = tested on: normal physiological nociception; test: normal physiological nociception; type: in vivo; settings: after administration of spongosine

| Structure (SMILES) | inhibition of static allodynia (paw withdrawal threshold, PWT) (static allodynia; p.o., dose response, Example 5) | anti-inflammatory activity [1] | inhibition of thermal hyperalgesia (difference in paw withdrawal latencies) ([2]; 0.624 mg/kg p.o., rat, about two weeks after sciatic nerve ligation) | efficacy relative to carbamazepine ([2]; spongosine 0.624 mg/kg p.o. versus carbamazepine 100 mg/kg s.c.) | inhibition of carrageenan induced thermal hyperalgesia (difference in paw withdrawal latencies) ([3]; 0.624 mg/kg p.o., given at the same time as carrageenan (2%, 10 microliters, right hind paw)) | efficacy relative to indomethacin ([3]; spongosine 0.624 mg/kg p.o. versus indomethacin 3 mg/kg po) | effect on blood pressure [4] | effect on heart rate [4] | hypotensive activity [5] | hypothermic activity [5] | muscle relaxant activity [5] | analgesic effect on normal physiological nociception [6] | inhibition of static allodynia (paw withdrawal threshold, PWT) (static allodynia; 1.2 mg/kg p.o., absence of naloxone) | inhibition of static allodynia (paw withdrawal threshold, PWT) (static allodynia; 1.2 mg/kg p.o., presence of naloxone 1 mg/kg s.c.) |
| --- | --- | --- | --- | --- | --- | --- | --- | --- | --- | --- | --- | --- | --- | --- |
| NCC1(CC(=O)O)CCCCC1 [gabapentin, reference compound] | inhibit | – | – | – | – | – | – | – | – | – | – | – | – | – |
| COc1nc(N)c2ncn([C@@H]3O[C@H](CO)[C@@H](O)[C@H]3O)c2n1 [Spongosine, 2-methoxyadenosine] | inhibit | anti-inflammatory activity | inhibits | as, or more, effective | inhibits | comparable efficacy | no significant effect | no significant effect | hypotensive | hypothermic | muscle relaxant | No analgesic effect | inhibits | inhibits |
